Patent US8859581B2, “Azaheterocyclic compounds as kinase inhibitors” (Merck Patent GmbH, priority 2005, dated 2014)
Where a name gives a salt, the structure may show the parent alone. Read-outs that look alike come from different tables or passages of the source.

Experiments:
IGF1R = target: T1, IGF1R (Homo sapiens, UniProt P08069); test: Inhibition of IGF-1R (IC50): IGF1-stimulated IGF1R autophosphorylation in human tumour cells, Capture-ELISA or LUMINEX; type: cell-based; conditions: human tumour cells expressing IGF1R (for example MCF-7 or Calu-6), 45 min pre-treatment, IGF1 stimulation 5 min
T1 construct: endogenous in cells
Method: Cultivated human tumour cells which express the IGF1 receptor (IGF1R) (for example MCF-7 or Calu-6) are stimulated using human IGF1, the natural ligand of IGF1R. The stimulation induces autophosphorylation of tyrosine residues in the cytoplasmatic IGF1R domain, which triggers signal transduction cascades, which result in apoptosis inhibition and cell proliferation.
The amount of phosphorylated IGF1R is determined by a receptor-specific Capture-ELISA or an analogous LUMINEX assay. The IGF1R from cell lysates is bound to a 96-well ELISA plate or LUMINEX beads (“capturing”) by means of a specific antibody, and the tyrosine phosphorylation is detected using a biotin-labelled anti-phosphotyrosine antibody and a streptavidin peroxidase conjugate by a chemoluminescence method or by means of a fluorescence-labelled anti-phosphotyrosine antibody, In order to determine the activity of kinase inhibitors, cells are pre-treated with increasing concentrations of these compounds for 45 min and subsequently stimulated using IGF1 for 5 min. As internal control, the biological activity of the ligand IGF1 is checked and a concentration series of an IGF1R reference inhibitor measured.

T1 sequence (P08069 31-1367): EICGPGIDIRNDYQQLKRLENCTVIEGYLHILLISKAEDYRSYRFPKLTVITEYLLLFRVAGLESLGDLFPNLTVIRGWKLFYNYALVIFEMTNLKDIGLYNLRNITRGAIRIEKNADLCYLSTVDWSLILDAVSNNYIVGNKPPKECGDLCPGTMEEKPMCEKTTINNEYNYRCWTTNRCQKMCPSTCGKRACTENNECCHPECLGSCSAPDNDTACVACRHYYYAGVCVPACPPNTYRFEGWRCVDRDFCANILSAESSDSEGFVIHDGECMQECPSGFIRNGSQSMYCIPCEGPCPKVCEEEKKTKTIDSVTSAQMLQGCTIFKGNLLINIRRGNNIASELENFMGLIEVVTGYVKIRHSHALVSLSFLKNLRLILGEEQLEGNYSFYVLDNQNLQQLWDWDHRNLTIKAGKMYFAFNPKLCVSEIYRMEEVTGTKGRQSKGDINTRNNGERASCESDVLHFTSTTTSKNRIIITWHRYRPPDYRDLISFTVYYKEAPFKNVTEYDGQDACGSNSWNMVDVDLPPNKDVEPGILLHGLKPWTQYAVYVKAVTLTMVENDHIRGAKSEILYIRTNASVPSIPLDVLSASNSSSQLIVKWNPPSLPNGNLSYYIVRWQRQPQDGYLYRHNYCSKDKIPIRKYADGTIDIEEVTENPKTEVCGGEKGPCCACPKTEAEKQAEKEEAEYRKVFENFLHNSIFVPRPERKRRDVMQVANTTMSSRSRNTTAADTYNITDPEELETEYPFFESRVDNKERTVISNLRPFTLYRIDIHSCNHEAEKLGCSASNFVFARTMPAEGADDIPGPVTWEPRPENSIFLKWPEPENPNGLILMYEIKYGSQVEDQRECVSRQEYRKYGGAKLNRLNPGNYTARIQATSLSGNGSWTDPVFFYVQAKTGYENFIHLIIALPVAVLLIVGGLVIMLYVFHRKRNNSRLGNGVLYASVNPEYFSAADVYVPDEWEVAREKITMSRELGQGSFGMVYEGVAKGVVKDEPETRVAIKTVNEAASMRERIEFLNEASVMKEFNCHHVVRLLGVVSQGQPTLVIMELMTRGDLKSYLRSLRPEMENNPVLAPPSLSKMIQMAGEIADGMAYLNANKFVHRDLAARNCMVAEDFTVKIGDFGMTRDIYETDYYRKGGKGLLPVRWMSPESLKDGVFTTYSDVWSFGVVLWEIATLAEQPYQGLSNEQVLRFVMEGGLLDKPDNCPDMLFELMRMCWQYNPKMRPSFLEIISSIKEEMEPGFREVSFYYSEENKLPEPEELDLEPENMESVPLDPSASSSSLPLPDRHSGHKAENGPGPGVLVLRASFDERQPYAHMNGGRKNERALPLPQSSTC

| melting point | SMILES | other results |
| --- | --- | --- |
| 118 to 120 °C | C#CCCCCNc1ccnc2[nH]c(-c3ccc(OC)cc3)cc12 (as salt: hydrochloride) (hydrate or solvate) [Compound 20] | – |
| – | COc1ccc(CNc2ccnc3[nH]c(-c4ccc(OC)cc4)cc23)cc1 [Compound 16] | IC50 (IGF1R; read-out: IC50 (μM), IGF1R): 11 µM |
| 159.5 to 160 °C | COc1cccc(-c2c[nH]c3ccnc(Cl)c23)c1 [Compound 46] | – |
| 166 to 167.5 °C | c1ccc(CCCOc2cccc(-c3cc4c(Nc5cccnc5)ccnc4[nH]3)c2)cc1 (as salt: HCl) [Compound 22] | – |
| 50 °C | COc1cccc(-c2cn(CCCCN)c3ccnc(N)c23)c1 (as salt: TFA) [Compound 47] | – |
| 168 to 170 °C | c1ccc(COc2cccc(-c3cc4cnccc4[nH]3)c2)cc1 [Compound 70] | – |
| 291 to 292.5 °C | COc1cc(-c2cc3c(Nc4cccc(C#N)c4)ccnc3[nH]2)cc(OC)c1OC (as salt: hydrochloride) (hydrate or solvate) [Compound 11] | – |
| 202 to 203 °C | COc1cc(-c2cc3c(Nc4cccnc4)ccnc3[nH]2)cc(OC)c1OC (as salt: hydrochloride) (hydrate or solvate) [Compound 2] | – |
| 177 to 180 °C | COc1cccc(-c2cn(C3CC(CNC(=O)c4ccccc4C(=O)O)C3)c3cc(Cl)ncc23)c1 (stereo not shown) [Compound 80] | – |
| 128 to 129 °C | c1ccc(CCCOc2cccc(-c3cc4cccnc4[nH]3)c2)cc1 [Compound 30] | – |
| 130 °C (dec.) | COc1cccc(-c2cn(CCN3C(=O)c4ccccc4C3=O)c3ccnc(Cl)c23)c1 (as salt: TFA) [Compound 51] | – |
| > 299 °C | COc1cccc(-c2c[nH]c3ccnc(Nc4ccccn4)c23)c1 [Compound 53] | – |
| 164 to 165 °C | COc1ccc(CNc2ccnc3[nH]c(-c4cccc(OCCCc5ccccc5)c4)cc23)cc1 [Compound 23] | – |
| 105.5 to 106.5 °C | COc1cc(-c2cc3c(NCCc4cccnc4)ccnc3[nH]2)cc(OC)c1OC (as salt: hydrochloride) (hydrate or solvate) [Compound 9] | – |
| 127 to 127.5 °C | COc1ccc(CNc2ccn(CCCCN)c3nc(-c4ccc(OC)cc4)cc2-3)cc1 (as salt: TFA) [Compound 36] | – |
| 164 to 165 °C | COc1cccc(-c2cc3c(Nc4ccc(F)c(Cl)c4)ccnc3[nH]2)c1 (as salt: hydrochloride) [Compound 6] | – |
| – | NCC1CC(n2cc(-c3cccc(OCc4ccccc4)c3)c3c(N)nccc32)C1 (stereo not shown) [Compound 73] | IC50 (IGF1R; read-out: IC50 (μM), IGF1R): 0.91 µM |
| 188 to 189 °C | COc1cccc(-c2cn(CCCCN3C(=O)c4ccccc4C3=O)c3ccnc(N)c23)c1 (as salt: TFA) [Compound 55] | – |
| 156 to 158 °C | Clc1nccc2[nH]cc(-c3cccc(OCc4ccccc4)c3)c12 [Compound 56] | – |
| 292 to 294 °C | COc1cc(-c2cc3c(Nc4cnccn4)ccnc3[nH]2)cc(OC)c1OC (as salt: hydrochloride) (hydrate or solvate) [Compound 7] | – |
| – | NCCCn1cc(-c2cccc(OCc3ccccc3)c2)c2c(N)nccc21 [Compound 71] | IC50 (IGF1R; read-out: IC50 (μM), IGF1R): 4.8 µM |

| melting point | SMILES | other results |
| --- | --- | --- |
| 218 to 219 °C | COc1cccc(-c2cc3c(NCCn4cccc4)ccnc3[nH]2)c1 (as salt: hydrochloride) [Compound 17] | – |
| 117 to 119 °C | COc1cccc(-c2cc3c(NCc4ccccc4)ccnc3[nH]2)c1 (as salt: hydrochloride) [Compound 14] | – |
| 78 to 80 °C | COc1ccc(Nc2ccnc3[nH]c(-c4cc(OC)c(OC)c(OC)c4)cc23)cc1N1CCN(C)CC1 (as salt: hydrochloride) (hydrate or solvate) [Compound 3] | – |
| – | COc1ccc(Nc2ccnc3[nH]c(-c4cc(OC)c(OC)c(OC)c4)cc23)cc1N1CCN(C)CC1 [Compound 3] | IC50 (IGF1R; read-out: IC50 (μM), IGF1R): 0.99 µM |
| 227 to 228.5 °C | COc1cc(-c2cc3c(Nc4cnc5ccccc5c4)ccnc3[nH]2)cc(OC)c1OC (as salt: hydrochloride) [Compound 1, quinolin-3-yl-[2-(3,4,5-trimethoxyphenyl)-1H-pyrrolo[2,3b]pyridin-4-yl]amine] | – |
| 189.5 to 190 °C | C=CCNc1ccnc2[nH]c(-c3ccc(OC)cc3)cc12 (as salt: TFA) [Compound 35] | – |
| – | COc1cccc(-c2cc3c(NCc4ccccc4)ccnc3[nH]2)c1 [Compound 14] | IC50 (IGF1R; read-out: IC50 (μM), IGF1R): 10 µM |
| 142 to 144 °C | COc1ccc(-c2cc3c(N(C(=O)c4ccc(F)c(Cl)c4)C(=O)c4ccc(F)c(Cl)c4)ccnc3[nH]2)cc1 (as salt: TFA) [Compound 33] | – |
| 226 to 227 °C | COc1ccc(CNc2nccc3[nH]cc(-c4cccc(OC)c4)c23)cc1 (as salt: HCl) [Compound 42] | – |
| – | COc1cc(-c2cc3c(Nc4cccnc4)ccnc3[nH]2)cc(OC)c1OC [Compound 2] | IC50 (IGF1R; read-out: IC50 (μM), IGF1R): 0.76 µM |
| – | COc1cc(-c2cc3c(NCCc4ccccn4)ccnc3[nH]2)cc(OC)c1OC [Compound 10] | IC50 (IGF1R; read-out: IC50 (μM), IGF1R): 1.4 µM |
| – | NCCCCn1cc(-c2cccc(OCc3ccccc3)c2)c2c(N)nccc21 [Compound 68] | IC50 (IGF1R; read-out: IC50 (μM), IGF1R): 20 µM |
| 218 to 219 °C | COc1ccc(CNc2ccnc3[nH]c(-c4cccc(OCc5ccccc5)c4)cc23)cc1 [Compound 32] | – |
| 196 to 197 °C | COc1ccc(CNc2ccnc3[nH]c(-c4ccc(OC)cc4)cc23)cc1 (as salt: hydrochloride) [Compound 16] | – |
| 181.5 to 183 °C | COc1cc(-c2cc3c(NCc4cccnc4)ccnc3[nH]2)cc(OC)c1OC (as salt: hydrochloride) (hydrate or solvate) [Compound 8] | – |
| 153 to 154 °C | COc1cc(-c2cc3c(NCCc4ccccn4)ccnc3[nH]2)cc(OC)c1OC (as salt: hydrochloride) (hydrate or solvate) [Compound 10] | – |
| 122 to 124 °C | COc1cccc(-c2cn(CCCNC(=O)c3ccccc3C(=O)O)c3ccnc(Cl)c23)c1 [Compound 50] | – |
| 130 to 131 °C | COc1ccc(CNc2nccc3[nH]c(-c4cccc(OCc5ccccc5)c4)cc23)cc1 (as salt: TFA) [Compound 48] | – |
| 137 °C | COc1cccc(-c2c([Si](C)(C)C)[nH]c3ccnc(Cl)c23)c1 | – |
| 141 to 142 °C | COc1ccc(-c2cc3c(NC(=O)Nc4ccc(Cl)c(C(F)(F)F)c4)ccnc3[nH]2)cc1 (as salt: TFA) [Compound 34] | – |
| 160 °C (dec.) | COc1cccc(-c2cn(CCNC(=O)c3ccccc3C(=O)O)c3cc(Cl)ncc23)c1 [Compound 78] | – |

| melting point | SMILES | other results |
| --- | --- | --- |
| 205 to 207 °C | COc1ccc(-c2cc3cnccc3[nH]2)cc1 [Compound 75] | – |
| – | COc1cc(-c2cc3c(NCc4cccnc4)ccnc3[nH]2)cc(OC)c1OC [Compound 8] | IC50 (IGF1R; read-out: IC50 (μM), IGF1R): 0.93 µM |
| 183 to 184 °C | COc1cccc(-c2c([Si](C)(C)C)n(CCCCN3C(=O)c4ccccc4C3=O)c3ccnc(Cl)c23)c1 (as salt: TFA) | – |
| 179 to 179.5 °C | COc1cccc(-c2c([Si](C)(C)C)[nH]c3cc(Cl)ncc23)c1 | – |
| 211 to 212 °C | COc1cccc(-c2c[nH]c3cc(Cl)ncc23)c1 [Compound 77] | – |
| 161 to 162 °C | COc1cccc(-c2cc3c(NCCCn4ccnc4)ccnc3[nH]2)c1 (as salt: hydrochloride) [Compound 12] | – |
| – | COc1cc(-c2cc3c(Nc4cnc5ccccc5c4)ccnc3[nH]2)cc(OC)c1OC [Compound 1, quinolin-3-yl-[2-(3,4,5-trimethoxyphenyl)-1H-pyrrolo[2,3b]pyridin-4-yl]amine] | IC50 (IGF1R; read-out: concentration at which the substance inhibits the kinase IGF-1R to the extent of 50%): 14 µM |
| – | COc1cc(-c2cc3c(Nc4cnccn4)ccnc3[nH]2)cc(OC)c1OC [Compound 7] | IC50 (IGF1R; read-out: IC50 (μM), IGF1R): 0.76 µM |
| 210 to 211.5 °C | Fc1cccc(Nc2ccnc3[nH]c(-c4cccc(OCCCc5ccccc5)c4)cc23)c1 (as salt: HCl) [Compound 24] | – |
| 100 to 101 °C | COc1cccc(-c2cn(CCCNC(=O)c3ccccc3C(=O)O)c3cc(Cl)ncc23)c1 [Compound 79] | – |
| 80 °C (dec.) | COc1cccc(-c2c[nH]c3ccnc(NCc4cccnc4)c23)c1 [Compound 62] | – |
| 175 to 176 °C | c1ccc(CCCOc2cccc(-c3cc4c(Nc5ccccn5)ccnc4[nH]3)c2)cc1 (as salt: HCl) [Compound 25] | – |
| 267.5 to 269 °C | COc1cc(-c2cc3c(Nc4ccc(F)c(Cl)c4)ccnc3[nH]2)cc(OC)c1OC (as salt: hydrochloride) [Compound 5] | – |
| 129 to 130 °C | COc1cccc(-c2cn(CCCN3C(=O)c4ccccc4C3=O)c3ccnc(Cl)c23)c1 (as salt: TFA) [Compound 49] | – |
| 177 to 178 °C | COc1cccc(-c2c[nH]c3ccnc(Nc4cccnc4)c23)c1 [Compound 63] | – |
| 97 to 99 °C | COc1cccc(-c2cn(CCCCCNC(=O)c3ccccc3C(=O)O)c3cc(Cl)ncc23)c1 [Compound 82] | – |
| 155 to 156 °C | Fc1ccccc1Nc1ccnc2[nH]c(-c3cccc(OCCCc4ccccc4)c3)cc12 (as salt: HCl) [Compound 26] | – |
| 225 to 228.5 °C | Clc1cc2[nH]cc(-c3cccc(OCc4ccccc4)c3)c2cn1 [Compound 83] | – |
| 257 to 258 °C | COc1cccc(-c2cc3c(NCCCN(C)C)ccnc3[nH]2)c1 (as salt: hydrochloride) (hydrate or solvate) [Compound 15] | – |
